Data on two compounds can be found in PMC11267282, “Ultrashort‐Peptide‐Responsive Gene Switches for Regulation of Therapeutic Protein Expression in Mammalian Cells” (Advanced Science, 2024).

Entries after “also recorded” stand apart in the source; their conditions may differ. Where a SMILES comes first, the peptide text is derived from it.

The subject of series [1] is engineered mammalian cells. Put plainly: Resazurin-based cell viability assay. The protocol: Cells were incubated with resazurin (cat. no. R7017, Sigma‐Aldrich, USA) at a concentration of 50 µg ml^−1 for 2 h. Then fluorescence was assayed with a plate reader (Tecan Spark, Tecan Group Ltd., Switzerland) at excitation and emission wavelengths of 540 and 590 nm, respectively. The fluorescence intensity of non‐induced cells was set to 100%.
(In general: The colour change of resazurin is a common sign of viable cells or microbes.)

Series [2] deals with HEK-293T cells. Put plainly: Cell growth kinetics of HEK-293 cells. The class given is cell-based, human. The note with it: non-transformed HEK-293T, 10-250 µM, 48 h, n = 4. As for the experimental part:
(§1) HEK‐293T cells were seeded in a 10 cm diameter dish at a density of 2.5 × 10^5 cells/ml. After 24 h of culture, the cells were transfected with 35 µg of pJH3 (PhCMV‐SEAP‐pA) overnight, then resuspended and evenly distributed into two 24‐well plates. The treatment groups were treated with XIP at the indicated concentration. Samples were collected at successive time points for two days to quantify viable cells and SEAP production.

The test system of series [3] is HEK-293T cells. Put plainly: Constitutive recombinant SEAP production (pJH3). The note with it: pJH3-transfected, 10-250 µM, 48 h, n = 4. The class given is cell-based, human. The protocol: as §1
SEAP reporter levels in cell culture supernatants were quantified using a colorimetric assay. In brief, 20 µl of cell culture supernatant was mixed with 80 µl of PBS buffer (cat. no. 14190144, ThermoFisher) and heat‐inactivated at 65 °C for 30 min. Then 80 µl of 2x SEAP assay buffer (20 mM homoarginine, 1 mM MgCl2, 21% diethanolamine, pH 9.8) was mixed with 20 µl of substrate solution, and 100 µl of the buffer‐substrate mixture was added to 100 µl of the diluted heat‐inactivated sample. Absorbance at 405 nm was recorded using a plate reader (Tecan Spark, Tecan Group Ltd., Switzerland) for 30 min at 37 °C to determine the SEAP levels.

Series [4] can be described thus: Membrane penetration inferred from intracellular gene switch activation. The class given is in vitro ADME. The following applies: HEK-293T with intracellular ComR switch; inferred from SEAP induction. As for the experimental part: Human embryonic kidney cells (HEK‐293T, ATCC: CRL‐11268), human telomerase‐immortalized mesenchymal stem cells (hMSC‐TERT),^[ [56] ^] human fibrosarcoma cells (HT‐1080, ATCC: CCL‐121), human cervical adenocarcinoma cells (HeLa, ATCC: CCL‐2), Chinese hamster ovary cells (CHO‐K1, ATCC: CCL‐61), baby hamster kidney cells (BHK‐21, ATCC: CCL‐10), and human liver cancer cells (Hep G2, ATCC: CRL‐11997) were cultured in Dulbecco's modified Eagle's medium (DMEM, cat. no. 52100–39, Thermo Fisher Scientific) containing 10% fetal bovine serum (FBS, cat. no. F7524, lot no. 022M3395, Sigma‐Aldrich) and 1% (v/v) streptomycin/penicillin (cat. no. L0022, Biowest). All mammalian cells were grown at 37 °C in a humidified atmosphere containing 5% CO2. For all transient transfections, 15 000 cells were seeded per well of a 96‐well plate (cat. no. 3599, Corning Inc. Life Sciences) overnight. Cells were transfected by mixing 100 ng of DNA and polyethyleneimine (PEI, 24765‐2, Polysciences) in a ratio of 1:4. […] The cell density was calculated using a cell counter (CellDrop BF Brightfield Cell Counter, DeNovix Inc.)
SEAP reporter levels in cell culture supernatants were quantified using a colorimetric assay. […] Absorbance at 405 nm was recorded using a plate reader (Tecan Spark, Tecan Group Ltd., Switzerland) for 30 min at 37 °C to determine the SEAP levels.

Series [5] has as its system CD4 / CD8 T cells of immunized mice. Put plainly: T-cell response, intracellular cytokine staining. The class given is in vivo, mouse. The following applies: FACS intracellular cytokine staining, spleen and draining lymph nodes, n = 3. The protocol: Mice were immunized at 2‐week intervals.
Isolated lymphocytes from spleens and lymph nodes were placed in a U‐bottom 96‐well plate and resuspended in 100 µl complete RPMI‐1640 medium, which contains FBS (10% v/v), HEPES (pH 7.2∼7.5, 1% v/v, Gibco), penicillin/streptomycin (1% v/v, Gibco), sodium pyruvate (1% v/v, Gibco) and 2‐mercaptoethanol (0.1% v/v, Gibco). Cells were stimulated with 1 µM cognate peptides or with Cell Stimulation Cocktail (a cocktail of phorbol 12‐myristate 13‐acetate (PMA) and ionomycin, Invitrogen) as positive controls at 37 °C for 4 h, in the presence of 10 µM brefeldin A (MedChemExpress) to inhibit cytokine secretion. Next, the cells were washed with 150 µl FACS buffer, and centrifuged with 1,500 g for 2 min. The supernatant was discarded and the cells were blocked with anti‐CD16/32 antibody (1:100, 93, 101302, BioLegend) in 20 µl/well FACS buffer at 4 °C for 15 min. Then 20 µl/well antibody cocktail containing anti‐CD3ε (1:500, 17A2, 100306, BioLegend), anti‐CD4 (1:500, RM4‐5, 100526, BioLegend), anti‐CD8β (1:500, YTS256.7.7, 126606, BioLegend), and anti‐CD45 (1:500, S18009F, 157211, BioLegend) was added to the cell mixture for 20 min incubation at 4 °C. […] Gate margins were determined on the basis of isotype controls and fluorescence‐minus‐one controls.

Series [6] concerns T1D mice with HEK-XIP implants. Put plainly: Serum inflammatory cytokines (ELISA). Type of series: in vivo, mouse. The following applies: four weeks after implantation, n = 5; for Serum IFN-γ (significance) / Serum TNF-α (significance): vs non-induced; for Serum IL-6: undetectable. As for the experimental part:
The concentrations of interferon gamma (IFN‐γ), interleukin‐6 (IL‐6), and tumor necrosis factor alpha (TNF‐α) in mouse serum were assessed by the use of specific enzyme‐linked immunosorbent assay (ELISA) kits. IFN‐γ levels were analyzed using the IFN gamma mouse ELISA kit (cat. no. ab282874, Abcam), IL‐6 levels were determined with the IL‐6 mouse ELISA kit (cat. no. ab100712, Abcam), and TNF‐α levels were quantified utilizing the TNF alpha mouse ELISA kit (cat. no. BMS607HS, ThermoFisher). Freund's Complete Adjuvant (cat. no.: 344289, Sigma‐Aldrich) and lipopolysaccharides (cat. no.: L2630‐10MG, Sigma‐Aldrich) were utilized to induce cytokine production as positive controls. Blood samples were collected from mice treated with adjuvant and LPS 24 hours post‐treatment. The quantification of cytokines from these groups was conducted using the same ELISA kit.
(In general: ELISA stands for enzyme-linked immunosorbent assay.)

The next series has as its system C57BL/6 mice. Put plainly: Antibody analysis for peptide immunogenicity. The note with it: s.c., three doses of 5 mg kg−1 at two-week intervals, with Freund's adjuvant, OD450, n = 3.

Experimental for C57BL/6 mice: Eight‐week‐old wild‐type male mice were immunized for peptide immunogenicity assessments. Briefly, peptide solution was premixed 1:1 with Freund's adjuvant in a total volume of 400 µl by thorough vigorous shaking. Then peptide/adjuvant mixes were injected subcutaneously in 30 min at a dose of 5 mg kg^−1. Mice were immunized at 2‐week intervals. Negative controls (mock‐immunized) were also included in the study. One week after the third dose of immunization, blood was sampled for antibody analysis.
For antibody analysis, the peptides were coated on the EIA/RIA plate (cat. no. 3590, Corning Inc. Life Sciences) in carbonate coating buffer (cat. no. CB01100, ThermoFisher) at 4 °C overnight. The next day the plate was blocked with 20% nonfat milk (cat. no. A0830,1000, AppliChem Panreac) for 24 h at 4 °C, and incubated with antibodies at the indicated dilution or at 37 °C for 1 h. Next, horseradish peroxidase‐linked anti‐mouse IgG (cat. no. LNA931V, GE Healthcare, USA) was added to the plate at a dilution of 1:1000 for 1 h at 37 °C. Between each step, the plate was washed with PBS at least three times. Then, 100 µl ultra TMB substrate solution (cat. no. 34028, ThermoFisher) was added to the plate at room temperature for 15 min, followed by the addition of 50 µl of stop solution (2 M H2SO4). The OD450 was measured by a plate reader (Tecan Spark, Tecan Group Ltd., Switzerland). Mouse anti‐HA antibody (cat. no. 901523, BioLegend, USA, 1:1000 dilution) was used as a positive control.

Turning to `CC[C@H](C)[C@H](NC(=O)[C@H](CCSC)NC(=O)[C@H](Cc1ccccc1)NC(=O)[C@H](Cc1ccccc1)NC(=O)[C@@H]1CCCN1C(=O)[C@@H](N)C(C)C)C(=O)N[C@@H](Cc1ccc(O)cc1)C(=O)N[C@@H](Cc1ccc(O)cc1)C(=O)O` [XIP, sigX/comX-inducing peptide] (H-VPFFMIYY-OH), in series [1] (ComREXTRA-expressing HEK-293T, 50/200/500 µmol/L, 24 h, n = 4), the “Cell viability under overstimulation” value is “ns and no significant difference of cell viability”. For the same compound, in series [1] (HEK-293T / HEK-XIP / mammalian cells, concentration range tested), the “Cytotoxicity (result in words)” value is given as “no significant impact on cell viability”. The “Cell viability (significance)” value is reported as “ns” in series [1] (engineered HEK-293T, ComR operator variants, 150 and 500 µmol/L, n = 4); “ns” in series [1] (seven cell lines expressing ComREXTRA-based system, 250 μM, n = 4); “ns” in series [1] (seven cell lines with first system (HEK-293T, hMSC-TERT, HT-1080, HeLa, CHO-K1, BHK21, HepG2), 250 μM, n = 4). Further, the “Effect on growth kinetics” value with HEK-293T cells [2] is “ns and negligible effect”. In the series with HEK-293T cells [3], the “Effect on constitutive SEAP production” value is “ns and negligible effect”. Besides, the Membrane penetration result in series [4] was “penetration ability across the mammalian cell membrane; also recorded: efficiently traverses the mammalian cell membrane”. In series [5], the “Peptide-specific T-cell response” value is “no peptide‐specific T‐cell response was detected”. Moreover, in series [6], the “Serum IFN-γ (significance)” value was “ns”. Also, the “Serum TNF-α (significance)” value in series [6] is recorded as “ns”. For the same compound, the “Serum IL-6” value in series [6] is reported as “Below 0.82 pg/ml”. For the same compound, the Antibody response entry is reported as “no detectable antibodies’ response” in the series with C57BL/6 mice and “ns” with C57BL/6 mice (listed as XIP_WT).
On to `CC(C)[C@H](N)C(=O)N1CCC[C@H]1C(=O)N[C@@H](Cc1ccccc1)C(=O)N[C@@H](Cc1ccccc1)C(=O)N[C@@H](Cc1ccc(O)cc1)C(=O)N[C@@H](Cc1ccc(O)cc1)C(=O)O` [ID3] (H-VPFFYY-OH), for which, in series [1] (50 and 250 µmol/L, 24 h, n = 4), the HEK-XIP cell viability entry was “ns”. Further, the “Peptide-specific T-cell response” value in series [5] is “no peptide‐specific T‐cell response was detected”. For the same compound, in series [6], the “Serum IFN-γ (significance)” value was “ns”, the “Serum TNF-α (significance)” value was “ns” and the “Serum IL-6” value is listed as “Below 0.82 pg/ml”. The Antibody response result with C57BL/6 mice was “no detectable antibodies’ response”. Further, the Antibody response result in the series with C57BL/6 mice (listed as XIP_ID3) is on record as “ns”.
